Data on six molecules can be found in US20250177329A1, “GPR120 AGONISTS FOR THE TREATMENT OF INFLAMMATORY BOWEL DISEASE” (Dompe' Farmaceutici SPA, priority 2022, published 2025).

Data set [1] in a line: Plasma pharmacokinetics after single oral administration to mice. It is filed as in vivo. The following applies: male, CD1, mouse, single oral dose (Dose_PO: 10.0-90.0 mg/kg). An excerpt: The purpose of this study was to evaluate plasma and tissue exposure of the following compounds after a single oral administration to mice: • 7-(3-(N-(4-fluoro-2,6-dimethylphenyl)sulfamoyl)phenyl)heptanoic acid (indicated below as DFL23806), • 7-(3-(N-(4-chloro-2,6-dimethylphenyl)sulfamoyl)phenyl)heptanoic acid (indicated below as DFL23914) • 7-(3-(N-(2,6-dimethyl-4-(trifluoromethyl)phenyl)sulfamoyl)phenyl)heptanoic acid (indicated below as DFL23922) • 7-(3-(N-(6-fluoro-4-methyl-[1,1′-biphenyl]-3-yl)sulfamoyl)phenyl)heptanoic acid (indicated below as DFL23916) • 7-(3-(N-(5-fluoro-3-methyl-[1,1′-biphenyl]-2-yl)sulfamoyl)phenyl)heptanoic acid (indicated below as DFL23917) • 7-(3-{[4-fluoro-2-methyl-5-(thiophen-2-yl)phenyl]sulfamoyl}phenyl)heptanoic acid (indicated below as DFL24102) […]
A retro-orbital, composite blood sampling at pre-dose or after dosing at 30 min, 1, 2, 6, 8 and 24 hours (three mice/time point) was carried out for the plasma pharmacokinetic assessment. Blood samples were collected in heparinized collection tubes. Samples were taken immediately onto ice and kept cool until centrifugation (10000 g for 3 minutes at about +4° C.). About 50 μL of plasma were stored in a freezer at −80° C. pending analysis.
After samples collection, bioanalysis for concentrations of the test compounds were done using HPLC-MS/MS methods and pharmacokinetic analysis of the compounds in plasma and tissues was performed according to standard non-compartmental approach using Watson system (v 7.6, Thermo Fisher Scientific Waltham, MA, USA) on mean concentration data.

A further data set concerns DSS-induced colitis. In words: Mouse model of Dextran Sodium Sulfate-induced colitis. Type of data set: in vivo, female C57/B16 mice. The following applies: day 39. The source says:
A mouse model of colitis induced by administration of Dextran Sodium Sulfate (DSS) (Wirtz S. et al. Nature Protocols; Volume: 2, Issue: 3 Pages: 541-546; 2007) was used to study the therapeutic effect of oral administration of DFL23806 on colitis.
In details, 8- to 12-week-old female C57/B16 mice were subjected to 3 oral cycles of 2.5% Dextran Sodium Sulfate (DSS) in drinking water (molecular mass, 40 kDa; MP Biomedicals), each cycle characterized by 7 days of DSS administration followed by 7 days of filter-purified water.
From day 3 of DSS administration, the mice were divided in 4 experimental groups, each receiving the treatment specified below: • Group 1: DSS (n=8)
No treatment, used as negative control. • Group 2: DSS+Vehicle (n=8)
Treated with 20% v/v Dimethyl Sulfoxide (DMSO) and 80% v/v Phosphate Buffered Saline (PBS), 0.1 M, pH 8 (Vehicle), used as a negative control. • Group 3: DSS+DFL 90 mg/kg (n=8)
Treated with DFL23806 dissolved in Vehicle, at the dosage of 90 mg/kg once a day. • Group 4: DSS+5-ASA 60 mg/kg (n=8)
Treated with 5-aminosalicylic acid (5-ASA) in Vehicle, at the dosage of 60 mg/Kg once a day, used as reference positive control.
Vehicle, DFL23806 and 5-ASA were administered daily, in the morning, by oral gavage, using plastic sterile feeding tubes 20 ga×30 mm. All mice were sacrificed on day 39.
A DAI score was established based on a scale that considers different parameters characterizing experimental colitis induction and progression (R S Walmsley et al. Gut 1998; 43:29-32).
Body weight, presence of gross blood in the feces, and stool consistency were recorded every 2 days. In details, the DAI was determined at each time point by scoring changes in weight loss (0=none, 1=1%-5%, 2=5%-10%, 3=10%-20%, 4=>20%); stool consistency (0=normal, 2=loose, 4=diarrhea); and rectal bleeding (0=normal, 2=occult bleeding, 4=gross bleeding).
Mice were sacrificed at day 39, colon were collected and colon lengths measured for each mouse, as additional parameter of intestinal inflammation.
The day of sacrifice (day 39), mice were anesthetized with 2% isoflurane and subjected to endoscopy, to confirm the inflammatory grade. The experimental endoscopy setup, denoted “Coloview system”, consisted of a miniature endoscope (scope 1.9 mm outer diameter), a xenon light source, a triple chip camera, and an air pump (all from Karl Storz, Tuttlingen, Germany) to achieve regulated inflation of the mouse colon. The endoscopic procedure was viewed on a colour monitor and a modified murine endoscopic index score of colitis severity was assigned on the basis of colon translucency (0-3 points), granular features of the mucosa (0-3 points), morphology of the vascular pattern (0-4 points), and the presence of fibrin (0-4 points), as previously described by Dr. D'Alessio (D'Alessio, S. et al. J. Clin. Invest. 124, 3863-3878; 2014) leading to a cumulative score between 0 (no signs of inflammation) and […] (endoscopic signs of very severe inflammation).
Histological analysis has been performed by an expert pathologist, in a blinded fashion, to grade the intestinal inflammation. More in details, colons of colitic mice in the various experimental groups have been evaluated for histological analyses using […] paraffin-embedded sections, stained with hematoxylin (Dako) and eosin (Diapath). A blinded pathologist evaluated the degree of inflammatory cell infiltration and mucosal damage, using the RACHMILEWITZ score (Table 1) (Rachmilewitz, D. et al. Gastroenterology 122, 1428-1441; 2002).

The next data set addresses T1, GPR40 (Mus musculus, UniProt Q76JU9).
T1 construct: Colon lysates (˜900 μg proteins) from 6 mice of each experimental group were pooled; from tissue; host or cells: mouse colon (DSS colitis model)
In words: Co-immunoprecipitation of β-arrestin 2 with GPR40 in colon lysates of DSS mice. It is filed as in vivo. The following applies: pooled colon lysates, day 39; compared to DSS or DSS+vehicle. As to the method: The efficiency of DFL in activating the GPR120 and/or GPR40 receptors was tested.
Agonist-induced GPR120 can engage multiple signalling pathways to regulate distinct physiological outcomes. After ligand binding, B-arrestins, such as B-arrestin 2 can associate with the cytoplasmic domains of GPR120 and couple the receptor to specific downstream signaling pathways (FIG. 9). For this reason, we verified the agonist efficiency in activating GPR120 and GPR40 by immunoprecipitation. Colon lysates (˜900 μg proteins) from 6 mice of each experimental group were pooled, precleared with protein A/G plus-agarose (Santa Cruz) and then incubated with the antibody used for immunoprecipitation (anti-GPR120 or anti-GPR40, Abcam) at 4° C. for 16 h, followed by incubation with protein A/G plus-agarose for 5 h. The agarose beads were then collected by centrifugation, washed four times with lysis buffer, and heated to 95° C. for 5 min after adding Laemmli buffer. The resulting immunoprecipitates were separated by SDS-PAGE and probed with the anti-β-arrestin 2 antibody (Santa Cruz).
Upon western blotting, a densitometric analysis of the blots was performed using Image J. FIGS. 10 and 11 show the ratio between co-immunoprecipitated β-arrestin 2 and GPR120 (FIG. 10) or GPR40 levels (FIG. 11) and the results of the blotting.

Where [2] appears, read: colon, DFL 90 mg/kg, 5-ASA 60 mg/kg, compared with DSS+Vehicle.
[3] abbreviates: DFL23806 90 mg/kg, 5-ASA 60 mg/kg oral once a day, compared to DSS and DSS+Vehicle.

Each structure is given as a SMILES string.

T1 sequence (Q76JU9 whole entry): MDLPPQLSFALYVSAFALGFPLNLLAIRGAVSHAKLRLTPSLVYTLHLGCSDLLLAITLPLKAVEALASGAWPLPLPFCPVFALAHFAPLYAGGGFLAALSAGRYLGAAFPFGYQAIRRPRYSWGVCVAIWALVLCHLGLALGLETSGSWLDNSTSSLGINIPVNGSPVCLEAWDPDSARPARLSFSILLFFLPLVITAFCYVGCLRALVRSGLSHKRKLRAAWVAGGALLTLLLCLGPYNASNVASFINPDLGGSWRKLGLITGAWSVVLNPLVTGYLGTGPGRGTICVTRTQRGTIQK

In the case of `Cc1cc(F)c(-c2cccs2)cc1NS(=O)(=O)c1cccc(CCCCCCC(=O)O)c1` [DFL24102, 7-(3-{[4-fluoro-2-methyl-5-(thiophen-2-yl)phenyl]sulfamoyl}phenyl)heptanoic acid], in data set [1], the AUC(0-inf) stood at 302 ng·h/mL, the AUC(0-t) worked out at 278 ng·h/mL, the maximum concentration (Cmax) is 113 ng/mL and the Tmax was 1 h. In addition, in data set [1], the half-life is 1.9 h.
In the case of `Nc1ccc(O)c(C(=O)O)c1` [5-ASA, 5-aminosalicylic acid, reference compound], in the data set on DSS-induced colitis (setting [2]), the “histological score (Rachmilewitz) for extent of flogosis” value is listed as “significantly reduced the histological score”, the “histological score (Rachmilewitz) for extent of ulceration” value is listed as “significantly reduced the histological score”, the “histological score (Rachmilewitz) for flogosis” value was “significantly reduced the histological score” and the “histological score (Rachmilewitz) for ulceration” value is recorded as “significantly reduced the histological score”. For the same molecule, in the data set on DSS-induced colitis (setting [3]), the composite endoscopic score entry is recorded as “significantly inhibit chronic experimental colitis”, the “endoscopic score: colon thickness” value is recorded as “significantly inhibit chronic experimental colitis”, the “endoscopic score: mucosal surface granularity” value was “significantly inhibit chronic experimental colitis” and the “endoscopic score: vascular pattern” value is “significantly inhibit chronic experimental colitis”. The “endoscopic score: visible fibrin” value with DSS-induced colitis (setting [3]) is “significantly inhibit chronic experimental colitis”. In the data set on DSS-induced colitis (DFL23806 90 mg/kg, 5-ASA 60 mg/kg oral once a day, compared to DSS+vehicle), the colon length entry is “significant inhibitory effect”. Moreover, at GPR40, the “GPR40 and β-arrestin 2 association (ratio co-immunoprecipitated β-arrestin 2 / GPR40)” value is listed as “no increase”.
For the molecule `Cc1cc(C(F)(F)F)cc(C)c1NS(=O)(=O)c1cccc(CCCCCCC(=O)O)c1` [DFL23922, 7-(3-(N-(2,6-dimethyl-4-(trifluoromethyl)phenyl)sulfamoyl)phenyl)heptanoic acid], in data set [1], the AUC(0-inf) amounted to 217 ng·h/mL, the AUC(0-t) was found to be 201 ng·h/mL, the peak level (Cmax) was 123 ng/mL and the Tmax turned out to be 1.4 h. Also, the half-life in data set [1] is 1.5 h.
In the same order, the values of `Cc1cc(F)c(-c2ccccc2)cc1NS(=O)(=O)c1cccc(CCCCCCC(=O)O)c1` [DFL23916, 7-(3-(N-(6-fluoro-4-methyl-[1,1′-biphenyl]-3-yl)sulfamoyl)phenyl)heptanoic acid] are 571 ng·h/mL, 480 ng·h/mL, 198 ng/mL, 0.4 h and 2.2 h.
As to `Cc1cc(Cl)cc(C)c1NS(=O)(=O)c1cccc(CCCCCCC(=O)O)c1` [DFL23914, 7-(3-(N-(4-chloro-2,6-dimethylphenyl)sulfamoyl)phenyl)heptanoic acid], in data set [1], the AUC(0-inf) stood at 230 ng·h/mL, the AUC(0-t) turned out to be 189 ng·h/mL, the Cmax stood at 45 ng/mL and the Tmax stood at 2 h. The same molecule had a half-life in data set [1] of 1.2 h.
In the same order, the values of `Cc1cc(F)cc(-c2ccccc2)c1NS(=O)(=O)c1cccc(CCCCCCC(=O)O)c1` [DFL23917, 7-(3-(N-(5-fluoro-3-methyl-[1,1′-biphenyl]-2-yl)sulfamoyl)phenyl)heptanoic acid] are 402 ng·h/mL, 378 ng·h/mL, 135 ng/mL, 0.5 h and 1.3 h.

As a reminder, the AUC(0-inf) is total exposure, with the tail of the curve extrapolated. Low values mean less exposure, high ones more exposure. The term AUC(0-t) denotes the area under the concentration-time curve up to a stated or last time point. Lower therefore signals low exposure. In general, Cmax refers to the maximum level reached in the sampled fluid or tissue. For orientation: Tmax means the time from dosing to the highest level. What is called half-life is the time needed for the level to fall by half in the phase considered. A high value points to slow decline.
